Measured values reported in patent publication US10500217B2 (LESLIE RAY MATTHEWS, M.D., LLC, priority 2018, dated 2019).

Tested on: Glial cells (DBTRG-05MG; CRL-2020)
Assay: Lactate dehydrogenase (LDH) cell death assay: percentage cell survival of glia cells with or without H2O2 exposure
Assay type: cell-based, human
Conditions: for Percentage Cell Survival (% ± SD), H202 Given Last (30 min before H202 given/pre-treatment) / Percentage Cell Survival (% ± SD), H202 (added 30 min after): H2O2 0.25M about 30 min after treatment; for Percentage Cell Survival (% ± SD), H202 Given 1st (30 min after H202 Given, mimics acute injury) / Percentage Cell Survival (% ± SD), H202 (added 30 min before): H2O2 0.25M about 30 min before treatment; for Percentage Cell Survival (% ± SD), Control: control (PBS) instead of H2O2; for Percentage Cell Survival (% ± SD), H202 given (30 min after treatment with Vitamin D) / Percentage Cell Survival (% ± SD), H202 Given (30 min before treatment with Vitamin D) / Percentage Cell Survival (% ± SD), Control (PBS): Table 3; for Percentage Cell Survival (% ± SD), H202 given (30 min after treatment with Vitamin D): H2O2 0.25M 30 min after treatment; for Percentage Cell Survival (% ± SD), H202 Given (30 min before treatment with Vitamin D): H2O2 0.25M 30 min before treatment; for Percentage Cell Survival (% ± SD), Control (PBS): no H2O2
Procedure: Glial cells were purchased from ATCC (DBTRG-05MG; CRL-2020) and were derived from the brain of a […] with glioblastoma. […] Glial cells were subcultured at a ratio of about 1:4 every 2 to 3 days. Cell death was measured by the CytoTox 96 Non-Radioactive Cytotoxicity Assay according to the manufacturer's instructions (Promega, Madison, Wis.). Culture medium (500 μl) was recovered from and incubated for about 30 min in the dark with a buffer containing NAD+, lactate, and tetrazolium. Lactate Dehydrogenase (LDH) converts lactate to pyruvate, generating NADH which reduces tetrazolium (yellow) to formazan (red), which is detected by […] (490 nm). LDH release, a marker for cell death, was expressed as a percentage of the LDH in the medium over the total LDH. Data was analyzed using a two-tailed t-test after applying ANOVA to the data. Differences were considered significant when p<0.01. Glia cells (10^6 cells) were plated in triplicates in 6-well plates. […] Percentage cell survival was calculated about 24 hours later using LDH assay. […] Glia cells (10^6 cells) were plated in triplicates in 6-well plates. […] Percentage cell survival was calculated about 24 hours later using LDH assay. […] Glia cells (10^6 cells) were plated in triplicates in 6-well plates. […] Percentage cell survival was calculated about 24 hours later using LDH assay.

[1] = Table 1, survival about 24 h later, 3 experiments
[2] = Table 2, Vitamin D3 (1/5), Hsp72 (1/5), Glutathione 200 mg/ml, 24 h, 4 experiments

Molecule: C=C1CC[C@H](O)C/C1=C/C=C1\CCC[C@]2(C)[C@@H]([C@H](C)CCCC(C)C)CC[C@@H]12 [Vitamin D3, Cholecalciferol]
- Percentage Cell Survival (% ± SD), H202 Given Last (30 min before H202 given/pre-treatment) [1]: 28.56 ± 8.9 %
- Percentage Cell Survival (% ± SD), H202 Given 1st (30 min after H202 Given, mimics acute injury) [1]: 15.27 ± 7.4 %
- Percentage Cell Survival (% ± SD), Control [1]: 94.64 ± 4.6%
- Percentage Cell Survival (% ± SD), H202 (added 30 min after) [2]: 12.68 ± 3.5 %
- Percentage Cell Survival (% ± SD), H202 (added 30 min before) [2]: 10.36 ± 2.3 %
- Percentage Cell Survival (% ± SD), Control [2]: 97.28 ± 4.3%
- Percentage Cell Survival (% ± SD), H202 given (30 min after treatment with Vitamin D) (Vitamin D3 5 ng/m1, 24 h): 9.75 ± 3.6%
- Percentage Cell Survival (% ± SD), H202 Given (30 min before treatment with Vitamin D) (Vitamin D3 5 ng/m1, 24 h): 6.22 ± 2.8%
- Percentage Cell Survival (% ± SD), Control (PBS) (Vitamin D3 5 ng/m1, 24 h): 96.89 ± 4.5%
- Percentage Cell Survival (% ± SD), H202 given (30 min after treatment with Vitamin D) (Vitamin D3 25 ng/m1, 24 h): 13.09 ± 2.9 %
- Percentage Cell Survival (% ± SD), H202 Given (30 min before treatment with Vitamin D) (Vitamin D3 25 ng/m1, 24 h): 10.18 ± 2.2 %
- Percentage Cell Survival (% ± SD), Control (PBS) (Vitamin D3 25 ng/m1, 24 h): 98.56 ± 7.9%
- Percentage Cell Survival (% ± SD), H202 given (30 min after treatment with Vitamin D) (Vitamin D3 50 ng/m1, 24 h): 28.56 ± 3.9 %
- Percentage Cell Survival (% ± SD), H202 Given (30 min before treatment with Vitamin D) (Vitamin D3 50 ng/m1, 24 h): 15.27 ± 4.4 %
- Percentage Cell Survival (% ± SD), Control (PBS) (Vitamin D3 50 ng/m1, 24 h): 91.18 ± 6.8%
- Percentage Cell Survival (% ± SD), H202 Given (30 min before treatment with Vitamin D) (Vitamin D3 75 ng/m1, 24 h): 22.94 ± 3.8 %
- Percentage Cell Survival (% ± SD), Control (PBS) (Vitamin D3 75 ng/m1, 24 h): 95.82 ± 6.2%
- Percentage Cell Survival (% ± SD), H202 given (30 min after treatment with Vitamin D) (Vitamin D3 100 ng/m1, 24 h): 60.11 ± 7.2 %
- Percentage Cell Survival (% ± SD), H202 Given (30 min before treatment with Vitamin D) (Vitamin D3 100 ng/m1, 24 h): 28.99 ± 6.9 %
- Percentage Cell Survival (% ± SD), Control (PBS) (Vitamin D3 100 ng/m1, 24 h): 97.41 ± 8.4%

Molecule: Hsp72: Endotoxin-free recombinant Hsp72 produced using the baculovirus expression vector system and expressed in insect cells
- Percentage Cell Survival (% ± SD), H202 Given Last (30 min before H202 given/pre-treatment) [1]: 48.54 ± 6.3 %
- Percentage Cell Survival (% ± SD), H202 Given 1st (30 min after H202 Given, mimics acute injury) [1]: 31.85 ± 9.2 %
- Percentage Cell Survival (% ± SD), Control [1]: 96.88 ± 3.8%
- Percentage Cell Survival (% ± SD), H202 (added 30 min after) [2]: 32.68 ± 7.5 %
- Percentage Cell Survival (% ± SD), H202 (added 30 min before) [2]: 21.57 ± 5.4 %
- Percentage Cell Survival (% ± SD), Control [2]: 95.48 ± 5.1%
